Where two headings read alike, the source gives them in different places.
Biological target: T1, DNA polymerase α (calf thymus pol α) (Bos taurus, UniProt A0AAA9TD94)
T1 construct: gene POLA1; pol α purified from calf thymus
T1 sequence (A0AAA9TD94 1-1441): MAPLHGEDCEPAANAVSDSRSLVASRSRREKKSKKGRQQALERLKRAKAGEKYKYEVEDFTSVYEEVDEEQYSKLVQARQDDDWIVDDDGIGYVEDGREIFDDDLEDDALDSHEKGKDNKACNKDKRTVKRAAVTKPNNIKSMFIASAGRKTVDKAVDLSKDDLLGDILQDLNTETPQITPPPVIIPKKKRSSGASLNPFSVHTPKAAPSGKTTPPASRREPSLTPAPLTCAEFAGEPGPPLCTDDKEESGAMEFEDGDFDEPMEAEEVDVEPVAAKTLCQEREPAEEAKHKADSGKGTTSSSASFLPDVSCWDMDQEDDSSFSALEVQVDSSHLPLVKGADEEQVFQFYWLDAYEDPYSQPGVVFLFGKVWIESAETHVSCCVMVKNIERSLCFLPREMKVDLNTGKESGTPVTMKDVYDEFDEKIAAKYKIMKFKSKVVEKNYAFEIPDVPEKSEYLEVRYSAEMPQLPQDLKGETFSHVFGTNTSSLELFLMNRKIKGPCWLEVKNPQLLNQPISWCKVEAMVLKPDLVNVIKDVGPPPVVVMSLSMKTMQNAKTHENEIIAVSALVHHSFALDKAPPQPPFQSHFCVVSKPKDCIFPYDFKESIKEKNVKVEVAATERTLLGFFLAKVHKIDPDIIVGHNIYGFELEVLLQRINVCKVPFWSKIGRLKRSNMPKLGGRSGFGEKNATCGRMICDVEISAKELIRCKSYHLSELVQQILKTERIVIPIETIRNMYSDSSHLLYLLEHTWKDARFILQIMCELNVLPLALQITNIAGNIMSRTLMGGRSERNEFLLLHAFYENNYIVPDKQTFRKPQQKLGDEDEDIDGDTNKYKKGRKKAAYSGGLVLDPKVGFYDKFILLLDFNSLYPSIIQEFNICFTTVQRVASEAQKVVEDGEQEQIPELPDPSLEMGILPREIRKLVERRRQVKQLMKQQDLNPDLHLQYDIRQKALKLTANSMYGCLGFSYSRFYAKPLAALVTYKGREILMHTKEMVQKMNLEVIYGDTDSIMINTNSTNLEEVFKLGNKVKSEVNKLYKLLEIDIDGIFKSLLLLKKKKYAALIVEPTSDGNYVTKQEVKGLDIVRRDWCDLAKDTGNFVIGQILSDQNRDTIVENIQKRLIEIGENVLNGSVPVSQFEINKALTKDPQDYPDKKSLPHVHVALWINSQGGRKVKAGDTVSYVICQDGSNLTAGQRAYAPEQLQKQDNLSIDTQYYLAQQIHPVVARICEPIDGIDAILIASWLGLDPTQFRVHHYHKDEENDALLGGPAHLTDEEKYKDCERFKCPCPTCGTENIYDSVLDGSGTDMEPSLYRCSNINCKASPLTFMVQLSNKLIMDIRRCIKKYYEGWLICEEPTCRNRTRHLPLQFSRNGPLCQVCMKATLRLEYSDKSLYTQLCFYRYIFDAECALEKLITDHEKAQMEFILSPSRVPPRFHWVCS
Experiment: [3H]-dTTP incorporation polymerase assay on poly(dA)/oligo(dT)[…]-18 with purified pol α
Type: biochemical

SMILES | IC50 (read-out: IC50) [µM] | IC50 [µM]
COc1cc(O)c2c(c1)C1=CC(=O)C(O)=CC1(C)OC2=O (stereo not drawn) [compound 1, Dehydroaltenusin] | 9.9 | –
CCCCCCCCCCCCOc1cc(O)c2c(c1)C1=CC(=O)C(O)=CC1(C)OC2=O (stereo not drawn) [compound 2, C12] | 1.4 | –
C[C@@]1(CO)[C@H](O)CC[C@@]2(C)[C@H]1CC[C@H]1C[C@@H]3C[C@@]12CC[C@]3(O)CO [compound 3, aphidicolin] | – | 14.5

Source: PMC6245447, “Effect of Dehydroaltenusin-C12 Derivative, a Selective DNA Polymerase α Inhibitor, on DNA Replication in Cultured Cells” (Molecules, 2008)
